Measurements reported in patent publication US12448655B2, “Antibiotic susceptibility of microorganisms and related methods and systems” (CALIFORNIA INSTITUTE OF TECHNOLOGY, priority 2017, dated 2025).

Key:
[1] = tested on: Escherichia coli; assay: Minimum inhibitory concentrations (MICs) of Enterobacteriaceae clinical isolates; type: cell-based
Excerpt: (§1) Clinical isolates referenced, minimum inhibitory concentrations (MICs), and categorical susceptibility based on CLSI breakpoints The below list of organisms are examples of clinically-relevant susceptible and resistant Enterobacteriaceae clinical isolates. Minimum inhibitory concentrations (MICs) are provided in μg/mL for the antibiotics listed.
(§2) Isolates, growth conditions, and antibiotic exposure conditions. 25 de-identified clinical isolates were obtained from the UCLA Clinical Microbiology Laboratory (CML) and the CDC's Enterobacteriaceae Carbapenem Breakpoint panel. In the case of isolates obtained from the UCLA CML, MICs were determined as described previously. Genotypic testing of the two Ec and two Kp isolates selected for their lack of known β-lactamase genes was performed by UCLA CML using a previously published assay and separately at the Keck School of Medicine of USC using the FDA-approved Cepheid Xpert® Carba-R test. Whole genome sequencing of the single Ebs isolate selected for its lack of known resistance genes was performed by the CDC [3]. All isolates were stored as glycerol stocks at −80° C. Glycerol stocks were streaked onto Trypticase Soy Agar with 5% sheep's blood (Becton Dickinson, Franklin Lakes, NJ, USA) and grown overnight at 37° C. Prior to experiments, a small clump of cells was resuspended in 2 mL Brain Heart Infusion Broth (BHI, Becton Dickinson) at 37° C.+5% CO2 with 500 rpm shaking for 2 to 4 h until visibly turbid. OD600 of the cultures was then measured, and working cultures prepared at an OD600 of 0.01-0.07 and grown for 50-145 min at 37° C.+5% CO2 with 500 rpm. Working cultures were then diluted 10× into control and treated aliquots for antibiotic exposure. For validation experiments, antibiotic exposure was performed in 100 μL volumes consisting of 80 μL Mueller Hinton II Broth (Becton Dickinson), 5 μL nuclease-free H2O (NF—H2O), 5 μL 20× antibiotic stock solution, and 10 μL of working culture. In control aliquots, antibiotic stock solution was replaced with NF—H2O. For filtration experiments, antibiotic exposure was performed in 100 μL volumes consisting of 65 μL Mueller Hinton II Broth (Becton Dickinson), 21 μL nuclease-free H2O (NF—H2O), 4 μL 25× antibiotic stock solution, and 10 μL of working culture. In control aliquots, antibiotic stock solution was replaced with NF—H2O.

[2] = tested on: Klebsiella pneumoniae; assay: as above; type: cell-based
Excerpt: as §1, §2

[3] = tested on: Neisseria gonorrhoeae; assay: Minimum inhibitory concentrations (MICs) of Neisseria gonorrhoeae clinical isolates; type: cell-based
Description: Isolates and agar-dilution MIC testing. Isolates were provided by the University of Washington Neisseria Reference Laboratory and the Centers for Disease Control (CDC) Antibiotic Resistance Isolate Bank Neisseria gonorrhoeae panel (SINuca-Table). MICs of the CDC AR Isolate Bank are reported by the CDC [10], and MIC of all other isolates were determined by agar dilution according to the Clinical and Laboratory Standards Institute (CLSI) guidelines.

[4] = tested on: E. coli isolates; assay: pol-aAST, comparison of LAMP and qPCR amplification (Example 26); type: cell-based, Escherichia coli; settings: 0.5 μg/mL ertapenem for 15 min
Description: Comparison of amplification methods. In order to compare amplification using LAMP and PCR, E. coli isolates were exposed to 0.5 μg/mL ertapenem for 15 min. Samples were then transferred directly into either PCR or LAMP mix on ice. Amplification was started immediately. Quantitative PCR (qPCR) was performed on a Roche LightCycler 96 using SsoFast EvaGreen Supermix (BioRad, Hercules, CA, USA). 10 μL reactions were used. 10% of the final reaction volume was template. Published primers were used at a final concentration of 500 nM. Cycling conditions consisted of 3.0 min at 95° C., followed by 35 cycles of 95° C. for 10 sec, 60° C. for 10 sec, and 72° C. for 15 sec. Fluorescence was measured using the SYBR Green channel after each 72° C. extension step. LAMP was performed on a BioRad CFX96 using the following conditions: 10 μL reaction volume containing 1× Isothermal Reaction Buffer II (NEB), 5 mM MgSO4 (NEB), 1.4 mM dNTPs (NEB), 320 U/mL Bst 3.0 (NEB), and 2 μM Syto-9 (Thermo Fisher). 10% of the reaction volume was template. Primer sequences and concentrations have been described previously. Cycling conditions consisted of 2.0 min at 12° C. (while lid was heating), followed by 120 cycles of 70° C. for 10 sec. Fluorescence was measured using the SYBR Green channel every 10 sec (after each cycle).
To test this, pol-aAST is performed in this example using LAMP, and quantitative PCR (qPCR) (FIG. 48). […]

[5] = tested on: E. coli isolates; assay: Quantification of DNA release following antibiotic exposure, filtration and ddPCR (Example 27); type: cell-based, Escherichia coli; set-up: dose or concentration left out as unconfirmed; settings: 15 min exposure, 0.22 μm filtration, ddPCR
Description: Filtration experiments. Filtration experiments were performed using E. coli isolates exposed to 0.5 μg/mL ertapenem for 15 min. Immediately following exposure, cultures were passed through 0.22 μm, 1.5 mL cellulose acetate centrifuge tube filters (Corning Costar Spin-X, Corning, NY) by adding 50 μL of sample to the filter and centrifuging for 4 minutes at 1000 ref. DNA was extracted from both the feed and filtrate using QuickExtract DNA Extraction Solution (Lucigen, Middleton, WI, USA). Samples were diluted 10× into extraction buffer and extracted according to manufacturer instructions. The concentration of the single copy E. coli uidA gene was then quantified in the feed and filtrate extractions. The percentage of E. coli DNA in the filtrate was calculated as the filtrate concentration divided by the feed concentration. Droplet digital PCR (ddPCR) was performed using QX200 ddPCR Supermix for EvaGreen (BioRad). 10% of the final reaction volume was template. Published primers targeting the uidA gene in E. coli were used at a final concentration of 500 nM. Cycling conditions consisted of 5.0 min at 95° C., followed by 40 cycles of 95° C. for 30 sec, 60° C. for 30 sec, and 72° C. for 30 sec., with final dye stabilization steps of 4° C. for 5.0 min followed by 90° C. for 5.0 min.
To investigate the mechanism of pol-aAST, experiments were performed to separate free NAs from NAs contained within structurally intact cells or associated with cell debris. Susceptible and resistant clinical isolates were exposed to β-lactams for 15 min, then filtered through […] filters to remove cells from free NAs. NAs in the sample and eluate were then quantified using droplet digital PCR (ddPCR).

[6] = tested on: Ng isolates; assay: Percentage of cell lysis due to enhancer alone (Example 33); type: cell-based, Neisseria gonorrhoeae; settings: Ng clinical isolates (12 for BAC); no antibiotic
Description: Enhancer use. Working cultures of Ng isolates were prepared as described in “Ng culture preparation.” Initial exposure was performed by incubating 100 μL control and treated samples at 37° C. in PCR tube strips on a BioRad C1000 Thermal Cycler. Treated samples consisted of 75 μL MHB, 5 μL NaHCO3 (100 mM), 5 μL DNase I (2 U/μL), 5 μL PEN or CRO (20 μg/mL), and […] working Ng isolate culture. ABX were replaced with NF—H2O in control samples. After 15 min of incubation, samples were vortexed and quick-spun, and aliquots of all samples were transferred to the enhancement step as described below. After the enhancement step, 5 or 10 μL of all samples were extracted by diluting 10× in QuickExtract DNA Extraction Solution (Lucigen) and heating for 6 min at 65° C. followed by 4 min at 98° C. on a BioRad C1000 Thermal Cycler. All sample handling following ABX exposure was performed using a multichannel pipette; qPCR and calculation of % accessibility was performed as described above.
Osmotic and autolytic enhancing steps were performed in 100 μL volumes. The osmotic enhancing step consisted of 89.75 μL NF—H2O, 4.75 μL DNase I (2 U/μL), 0.5 μL CaCl (100 mM, 0.2-μM filtered), and 5 μL initial exposure samples. […]

CC1(C)S[C@@H]2[C@H](NC(=O)[C@H](N)c3ccccc3)C(=O)N2[C@H]1C(=O)O [AMP, ampicillin]
Antibiotic MICs ([1]; isolate Ec_1): 4 µg/mL
Antibiotic MICs ([1]; isolate Ec_2): <=2 μg/mL
Antibiotic MICs ([1]; isolate Ec_3): <=2 μg/mL
Antibiotic MICs ([1]; isolate Ec_4): <=2 μg/mL
Antibiotic MICs ([1]; isolate Ec_39): >=32 μg/mL
Antibiotic MICs ([1]; isolate Ec_40): >=32 μg/mL
Antibiotic MICs ([2]; isolate Kp_7): >32 µg/mL
Antibiotic MICs ([2]; isolate Kp_8): >32 µg/mL

C=CC1=C(C(=O)O)N2C(=O)[C@@H](NC(=O)/C(=N\OCC(=O)O)c3csc(N)n3)[C@H]2SC1 [CFM, cefixime]
Antibiotic MICs ([3]; isolate ng_1): ≤0.015 µg/mL
Antibiotic MICs ([3]; isolate ng_2): ≤0.015 µg/mL
Antibiotic MICs ([3]; isolate ng_3): ≤0.015 µg/mL
Antibiotic MICs ([3]; isolate ng_4): 0.060 µg/mL
Antibiotic MICs ([3]; isolate ng_5): 0.030 µg/mL
Antibiotic MICs ([3]; isolate ng_6): 0.015 µg/mL
Antibiotic MICs ([3]; isolate ng_12): 0.030 µg/mL
Antibiotic MICs ([3]; isolate ng_15): ≤0.015 µg/mL
Antibiotic MICs ([3]; isolate ng_16): ≤0.015 µg/mL
Antibiotic MICs ([3]; isolate ng_17): ≤0.015 µg/mL
Antibiotic MICs ([3]; isolate ng_18): 0.060 µg/mL
Antibiotic MICs ([3]; isolate ng_19): 0.030 µg/mL
Antibiotic MICs ([3]; isolate ng_20): ≤0.015 µg/mL
Antibiotic MICs ([3]; isolate ng_30): 1.000 µg/mL
Antibiotic MICs ([3]; isolate ng_41): 0.250 µg/mL
Antibiotic MICs ([3]; isolate ng_44): ≤0.015 µg/mL

C[C@@H](O)[C@H]1C(=O)N2C(C(=O)O)=C(S[C@@H]3CN[C@H](C(=O)Nc4cccc(C(=O)O)c4)C3)[C@H](C)[C@H]12 [ETP, ertapenem]
Antibiotic MICs ([1]; isolate Ec_1): <=.5 μg/mL
Antibiotic MICs ([1]; isolate Ec_2): <=.5 μg/mL
Antibiotic MICs ([1]; isolate Ec_3): <=.5 μg/mL
Antibiotic MICs ([1]; isolate Ec_4): <=.5 μg/mL
Antibiotic MICs ([1]; isolate Ec_38): >4 µg/mL
Antibiotic MICs ([1]; isolate Ec_39): 2 µg/mL
Antibiotic MICs ([1]; isolate Ec_40): 2 µg/mL
Antibiotic MICs ([1]; isolate Ec_41): 2 µg/mL
Antibiotic MICs ([2]; isolate Kp_1): <=.5 μg/mL
Antibiotic MICs ([2]; isolate Kp_2): <=.5 μg/mL
Antibiotic MICs ([2]; isolate Kp_7): >8 µg/mL
Antibiotic MICs ([2]; isolate Kp_8): >8 µg/mL
time-to-positive difference (TTPD) between control and treated aliquots, LAMP ([4]; susceptible E. coli isolate): 1.02 min
difference in Cq between control and treated samples, qPCR ([4]; two susceptible and two resistant E. coli isolates): none of which showed a statistically significant difference in Cq
average percentage of DNA released from susceptible isolates [5]: 15%

C[C@@H](O)[C@H]1C(=O)N2C(C(=O)O)=C(S[C@@H]3CN[C@H](C(=O)N(C)C)C3)[C@H](C)[C@H]12 [meropenem]
average percentage of DNA released from susceptible isolates [5]: 21%

benzalkonium chloride [BAC]
average percentage lysis by 5-min incubation with the enhancer alone [6]: 91.6%
